Laboratory results taken from patent publication US20220340983A1, “SYSTEMS AND ASSAYS FOR IDENTIFYING PU.1 INHIBITORS” (Massachustts Institute of Technology, priority 2019, published 2022).

Experiments:
PU.1 = biological target: T1, PU.1 (Mus musculus, UniProt P17433); experiment: Luciferase assay (luminescence) in BV2 PU.1-Luciferase reporter cells; type: cell-based; settings: luminescence reduction in BV2 PU.1-Luciferase cells, concentration-response, Hill's equation
T1 construct: endogenous in cells; host or cells: BV2 PU.1-Luciferase (mouse microglial BV2 with a 5xLBB-luciferase reporter integrated at ROSA26)
Description: PU.1 belongs to a group of transcription factors that all bind to the middle 5′-GGAA-3′ sequence. The flanking A/T rich sequence is crucial for conferring PU.1 selective binding. The flanking sequence requires unique structural properties of PU.1 and can therefore be targeted by drugs acting as allosteric inhibitors that prevent PU.1 from binding to the LBB. In order to achieve robust PU.1 binding, five tandem copies of the LBBs (5×LBB) were inserted into the luciferase promoter of the pGL4.23 plasmid. The region containing the five LBBs (5×LBB) was then subcloned into the pROSA26-1 plasmid (together with a PGKneo bpA plasmid for Neomycin/G418 resistance) that allows stable integration in chromosome 6 of the immortalized mouse microglial BV2 cell line (FIG. 2B). The stable cell line was created by selection with G418.
The BV2 PU.1-Luciferase cells (referred to as “cells” from here onward) were plated into a 384-well plate, using an automatic dispenser, 2000 cells per well in 30 μL of media composed of RPMI (Sigma-Aldrich), 10% FBS, 1% PenStrep (50 mg/mL) and 1% G418 (50 mg/mL) was plated. A robotic arm was used to transfer compounds in a 384-well format using a pin array into the plate containing the cells (here, 33 nL was transferred from a drug library containing 10 mM concentration of drugs for a final concentration of 10 μM per well). For reproducibility, each pin array with 384 compounds was added to 4 plates of cells. […] Subsequently, automatic of 30 μL of BrightGlo (Promega) was dispensed into 2 of the 4 plates, in order to lyse the cells and drive the luminescence reaction whereafter the luminescence intensity was measured by a plate reader (Perkin Elmer EnVision). The two other plates were fixed by automatically dispensing 30 μL of 10% formaldehyde with 2μL Hoechst per 1 mL formaldehyde which were left at room temperature for one hour, followed by plate reading (Acumen (TTPLabTech)). A compound transfer and treatment would be repeated if reproducibility between the luminescence plates and/or the fixed Hoechst plates was lacking. The drugs were selected and ranked according to the criteria described in FIG. 13. Luminescence values used were corrected for crosstalk. Hoechst values were total fluorescence area per well. Determination of a positive hit considered both the reduction of luminescence as well as a possible confounding reduction in cell viability. The formula used was y=(value−meanvalue)/stddev. […] Compounds were excluded if cell viability was reduced >2 standard deviations from the mean, using the same formula. The positive hits were then validated in multiple steps in order to identify true PU.1 inhibitors.
The degree of luminescence reduction of the hits was plotted with significant effective area under the curve in order to obtain an IC50.

[1] = system: PU.1 dependent gene expression; experiment: RT-qPCR of mRNA levels in BV2 PU.1-Luciferase cells (validation round 3); type: cell-based, mouse; settings: 2-day treatment
Method: The Asinex1 and ChemDiv6 libraries contain molecules with unknown biological properties, but with low toxicity, high stability, and a broad structural diversity used to generate structure-activity-relationships (SAR) of the PU.1 inhibitors. […] In order to obtain the SAR, three rounds of validation were performed. In round 1, false-positive, non-specific luciferase quencher molecules were excluded using the commercially available HEK293 CMV-Luciferase line that constitutively expresses luciferase under the CMV promoter. In round 2, weak (non-significant) hits were eliminated according to degree of PU.1 inhibition in the absence of cell death. In round 3, drugs were selected that reduce PU.1-dependent gene expression with RT-qPCR.

SMILES | IC50 (PU.1) | mRNA levels Apoe [1] | mRNA levels IL1β [1] | mRNA levels Lucif. [1] | mRNA levels Spi1 [1] | mRNA levels Trem2 [1] | mRNA levels Tyrobp [1]
Cc1ccc(-c2nc3cc(C(C)C)ccc3o2)cc1NC(=O)c1cc([N+](=O)[O-])ccc1N1CCOCC1 [Compound 1C4] | 2430 nM | 0.883 multiples of 1× | 0.813 multiples of 1× | 0.290 multiples of 1× | 1.142 multiples of 1× | 0.928 multiples of 1× | 1.197 multiples of 1×
CCOC(=O)c1ccc(NS(=O)(=O)c2cc(Br)cc3c2N(C(C)=O)C(C)C3)cc1 (centres unmarked) [Compound 1D3] | 1740 nM | 0.928 multiples of 1× | 1.144 multiples of 1× | 0.347 multiples of 1× | 0.965 multiples of 1× | 1.031 multiples of 1× | 1.102 multiples of 1×
COc1cc(NS(=O)(=O)c2ccc3c(c2)CC(C)N3C(=O)C2CCC2)cc(OC)c1OC (centres unmarked) [Compound 2C3] | 338 nM | 1.133 multiples of 1× | 1.043 multiples of 1× | 0.430 multiples of 1× | 0.946 multiples of 1× | 1.179 multiples of 1× | 1.127 multiples of 1×
Cc1c(Cl)ccc2sc(N3CCN(C(=O)CCS(=O)(=O)c4ccc(F)cc4)CC3)nc12 [Compound 2F9] | 1330 nM | 0.928 multiples of 1× | 0.821 multiples of 1× | 0.655 multiples of 1× | 1.020 multiples of 1× | 0.890 multiples of 1× | 0.904 multiples of 1×
Cc1nc(-c2ccc(S(=O)(=O)Nc3ccc(C)c(N(C)C)c3)cc2)co1 [Compound 2F3] | 2290 nM | 1.011 multiples of 1× | 0.386 multiples of 1× | 0.496 multiples of 1× | 0.733 multiples of 1× | 0.790 multiples of 1× | 0.854 multiples of 1×
CCOc1ccc(S(=O)(=O)Nc2ccc3c(c2)c(C(C)=O)c(C)n3S(=O)(=O)c2ccc(OCC)cc2)cc1 [Compound 1A5] | 2930 nM | 1.200 multiples of 1× | 0.707 multiples of 1× | 0.371 multiples of 1× | 0.982 multiples of 1× | 1.085 multiples of 1× | 1.117 multiples of 1×
CSc1ccc(C=Cc2nc3ccccc3n2S(=O)(=O)c2ccc(F)c(C)c2)cc1 [Compound 2G10] | 507 nM | 0.899 multiples of 1× | 0.786 multiples of 1× | 0.531 multiples of 1× | 0.790 multiples of 1× | 0.993 multiples of 1× | 0.855 multiples of 1×
Cn1nc(CC(=O)Nc2ccc(N3CCN(C(=O)OC(C)(C)C)CC3)cc2)c2ccccc2c1=O [Compound D06] | 25 nM | 1.233 multiples of 1× | 0.590 multiples of 1× | 0.153 multiples of 1× | 1.030 multiples of 1× | 1.510 multiples of 1× | 1.374 multiples of 1×
